Measured values: patent US20140363386A1, “DUALISTIC MOLECULES HAVING UV RADIATION FILTRATING ABILITY AT WIDE SPECTRUM AND POTENT DAMPING ACTIVITY OF THE REACTIVITY OF FREE RADICALS (RADICAL SCAVENGING)” (UNIVERSITA DEGLI STUDI FERRARA, priority 2012, published 2014)

Experiments:
[1] = DPPH test: reducing activity of anti-oxidant molecules against the radical DPPH; type: biochemical; settings: Trolox equivalents
Experimental: (§1) The compound object of the present invention was tested through different in vitro tests that complement one another, in order to evaluate its ability to counteract different radical species.
(§2) In particular, the DPPH test, based on the measurement of the reducing activity of anti-oxidant molecules against the radical DPPH (2,2-diphenyl-1-picrylhydrazyl), the FRAP (Ferric Reducing/Antioxidant Power) test, which measures the ability of an anti-oxidant to reduce the Fe^3+ ions to Fe^2+ ions in acid conditions and in the presence of TPTZ (2,4,6-tripyridyl-triazine) and PCL (Photochemiluminescence) analysis, which allows measurement of the inhibition by the anti-oxidants of photo-induced auto-oxidation of the luminol promoted by the superoxide anion, were used.
(§3) In table 1, in which the values are expressed in μmol Trolox/mmol compound, some examples are given.

[2] = FRAP (Ferric Reducing/Antioxidant Power) test; type: biochemical; settings: anti-oxidant activity, Trolox equivalents; acid conditions, TPTZ
Experimental: as §1, §2, §3

[3] = PCL (Photochemiluminescence) analysis of the compounds; type: biochemical; settings: anti-oxidant activity, Trolox equivalents; photo-induced auto-oxidation of luminol
Experimental: as §1, §2, §3

[4] = maximum wavelength absorbable (λ max), UV absorption; type: physicochemical; settings: for λ max: pH between 7.4 and 8 in a phosphate buffer
Experimental: Moreover, the compound object of the present invention recorded a significant increase in the maximum wavelength absorbable (λ max) with respect to 2-phenyl-1H-benzimidazole-5-sulfonic acid, which has been taken as reference.
Some examples are given in table 2, in which the λ max were measured at pH comprised between 7.4 and 8 in a phosphate buffer.
In 5 ml of ethanol 100 mg of 3,4-diamine-benzenesulfonic acid sulfate salt (0.35 mmol), 48 mg of 3,4 dihydroxybenzaldehyde (0.35 mmol) and 0.7 ml of sodium bisulfite solution 1N (0.7 mmol) were mixed. The reaction mixture was placed at 80° C. for 24 hours. After having evaporated the solvents, the raw product was treated with 5 ml of solution 5M of HCl. The precipitate was then filtered and the product recrystallized from methanol.

[5] = in vitro spectrophotometric determination of solar protection parameters of standard formulations (Diffey and Robson); settings: standard formulation containing the compound at 3%
Text: Determining the UVA/UVB ratio is a parameter that is mostly independent from the SPF value that provides a clear indication of the protective power of the solar product against UVA rays. According to the Boots scale, when the value of such a ratio is comprised between 0.6 and 0.8 the product offers a high UVA protection, when the value is greater than 0.8 the UVA protection is considered to be its maximum.
The critical λ is an important instrumental parameter for evaluating the protective power of the solar product against UVA rays: when the critical λ is greater than 370 nm the product offers protection over a wide spectrum.
Determining the solar protection parameters was carried out through in vitro tests that foresee the use of spectrophotometric techniques, according to the international protocol Diffey and Robson (B. L. Diffey, J. Robson, J. Soc. Cosm. Chem., 1989, 40: 127-133).
As well as 2-phenyl-1H-benzimidazole-5-sulfonic acid, as reference product with which to compare the data a commercial filter (Neo Heliopan® AP) was also used, known to be a water-soluble exclusively UVA filter with critical λ greater than 370 nm. The results of some standard formulations containing a compound according to the present invention are given as an example in table 3.
(§4) Standard Formulation 3% Prepared at pH 7.2-7.6

[6] = PCL analysis of anti-oxidant activity of standard formulations; type: biochemical; settings: standard formulation containing the compound at 3%
Text: as §2
We then proceeded to measure the anti-oxidant activity through PCL analysis of the standard formulations containing a compound according to the present invention at the concentration of 3%. Such an anti-oxidant activity was measured in order to compare it with the reference molecules.
as §4

[7] = known property of the commercial filter; cited from earlier work

SMILES: Oc1ccc(-c2nc3ccccc3[nH]2)cc1O [2-(3,4-Dihydroxy-phenyl)-1H-benzimidazole]
- DPPH [1]: 1975 ± 15 μmol Trolox/mmol compound
- FRAP [2]: 2523 ± 29 μmol Trolox/mmol compound
- PCL [3]: 27442 ± 329 μmol Trolox/mmol compound
- λ max [4]: 311 nm
- SPF [5]: 7.07 ± 1.36
- UVA/UVB (ratio between UVA absorbance and UVB absorbance) [5]: 0.93 ± 0.02
- λ critical [5]: 367.5 nm
- anti-oxidant activity through PCL analysis [6]: 760 ± 5 μmol Trolox/g cosmetic formulation

SMILES: O=C(O)c1ccc2[nH]c(-c3ccc(O)cc3O)nc2c1 [2-(2,4-Dihydroxy-phenyl)-1H-benzoimidazole-5-carboxylic acid]
- DPPH [1]: 32.2 ± 2.1 μmol Trolox/mmol compound
- FRAP [2]: 31.6 ± 1.7 μmol Trolox/mmol compound
- PCL [3]: 160 ± 4 μmol Trolox/mmol compound
- λ max [4]: 321.5 nm
- SPF [5]: 4.70 ± 0.62
- UVA/UVB (ratio between UVA absorbance and UVB absorbance) [5]: 1.48 ± 0.03
- λ critical [5]: 369.5 nm
- anti-oxidant activity through PCL analysis [6]: 4.97 ± 0.17 μmol Trolox/g cosmetic formulation

SMILES: O=C(O)c1ccc2[nH]c(-c3ccc(O)cc3)nc2c1 [2-(4-Hydroxy-phenyl)-1H-benzoimidazole-5-carboxylic acid]
- DPPH [1]: 1.19 ± 0.02 μmol Trolox/mmol compound
- FRAP [2]: 2.62 ± 0.06 μmol Trolox/mmol compound
- PCL [3]: 7 ± 0.3 μmol Trolox/mmol compound
- λ max [4]: 312.5 nm
- SPF [5]: 8.42 ± 1.55
- UVA/UVB (ratio between UVA absorbance and UVB absorbance) [5]: 0.89 ± 0.05
- λ critical [5]: 350 nm
- anti-oxidant activity through PCL analysis [6]: 0.16 ± 0.02 μmol Trolox/g cosmetic formulation

SMILES: O=S(=O)(O)c1ccc2[nH]c(-c3ccccc3)nc2c1 [2-phenyl-1H-benzimidazole-5-sulfonic acid, reference compound]
- DPPH [1]: 4.40 ± 0.03 μmol Trolox/mmol compound
- FRAP [2]: 0.79 ± 0.05 μmol Trolox/mmol compound
- PCL [3]: <0 μmol Trolox/mmol compound
- λ max [4]: 302.5 nm
- SPF [5]: 6.33 ± 1.24
- UVA/UVB (ratio between UVA absorbance and UVB absorbance) [5]: 0.31 ± 0.06
- λ critical [5]: 333 nm
- anti-oxidant activity through PCL analysis [6]: 0 μmol Trolox/g cosmetic formulation

SMILES: Oc1ccc(-c2nc3ccccc3[nH]2)c(O)c1 [2-(2,4-Dihydroxy-phenyl)-1H-benzimidazole]
- DPPH [1]: 16.5 ± 0.5 μmol Trolox/mmol compound
- FRAP [2]: 37.3 ± 0.3 μmol Trolox/mmol compound
- PCL [3]: 198 ± 3 μmol Trolox/mmol compound
- λ max [4]: 315.5 nm
- SPF [5]: 4.85 ± 0.71
- UVA/UVB (ratio between UVA absorbance and UVB absorbance) [5]: 1.31 ± 0.04
- λ critical [5]: 379.5 nm
- anti-oxidant activity through PCL analysis [6]: 8.66 ± 0.04 μmol Trolox/g cosmetic formulation

SMILES: O=S(=O)(O)c1ccc2[nH]c(-c3ccc(O)c(O)c3)nc2c1 [2-(3,4-dihydroxy-phenyl)-1H-benzoimidazole-5-sulfonic acid]
- DPPH [1]: 2145 ± 40 μmol Trolox/mmol compound
- FRAP [2]: 2313 ± 26 μmol Trolox/mmol compound
- PCL [3]: 27855 ± 764 μmol Trolox/mmol compound
- λ max [4]: 313.5 nm
- maximum absorption in the UV region ([4]; product of Example 1, medium not stated): 313 nm
- SPF [5]: 13.36 ± 2.20
- UVA/UVB (ratio between UVA absorbance and UVB absorbance) [5]: 0.88 ± 0.04
- λ critical [5]: 358.5 nm
- anti-oxidant activity through PCL analysis [6]: 725 ± 3 μmol Trolox/g cosmetic formulation

SMILES: O=C(O)c1ccc2[nH]c(-c3ccc(O)c(O)c3)nc2c1 [2-(3,4-Dihydroxy-phenyl)-1H-benzoimidazole-5-carboxylic acid]
- DPPH [1]: 1772 ± 75 μmol Trolox/mmol compound
- FRAP [2]: 1803 ± 22 μmol Trolox/mmol compound
- PCL [3]: 22014 ± 360 μmol Trolox/mmol compound
- λ max [4]: 317 nm
- SPF [5]: 9.82 ± 1.30
- UVA/UVB (ratio between UVA absorbance and UVB absorbance) [5]: 1.21 ± 0.04
- λ critical [5]: 369.5 nm
- anti-oxidant activity through PCL analysis [6]: 383 ± 18 μmol Trolox/g cosmetic formulation

SMILES: O=S(=O)([O-])c1cc(S(=O)(=O)O)cc2[nH]c(-c3ccc(-c4nc5c(S(=O)(=O)[O-])cc(S(=O)(=O)O)cc5[nH]4)cc3)nc12.[Na+].[Na+] [Neo Heliopan ® AP, reference compound]
- SPF [5]: 4.59 ± 0.37
- UVA/UVB (ratio between UVA absorbance and UVB absorbance) [5]: 2.46 ± 0.12
- λ critical [5]: 371 nm
- anti-oxidant activity through PCL analysis [6]: 0 μmol Trolox/g cosmetic formulation
- critical λ [7]: greater than 370 nm
